Assay results from US10391070B2, “Compositions and methods for treating neurological diseases or injury” (MUSC FOUNDATION FOR RESEARCH DEVELOPMENT, priority 2012, dated 2019).

Key:
zebrafish larvae = assay: Zebrafish larval toxicity (NOEC, lethal dose); format: in vivo; details: 7 dpf zebrafish larvae
Experimental: Using a 96-well plate, one zebrafish larva (7 dpf) was placed in each well in 100 μL of tank water (TW). 100 μL of each compound (0.5-15 μM) was then added to each well for 12 animals (one row) to give a final volume of 200 […]. A control row was tested for DMSO toxicity effects. […] Each drug was assessed for the no observed effect concentration (NOEC), the highest non-lethal dose resulting in no apparent toxic effects.
Zebrafish (AB strain) were obtained from the Zebrafish International Resource Center (supported by P40 RR012546 from NIH-NCRR). Zebrafish were maintained and crossed according to standard methods (Westerfield, 2000). Fertilized eggs were collected and placed in E3 embryo medium and positioned in an incubator set at 28.5° C. with a 14/10 h light/dark cycle (Kimmel et al., 1995). To determine the lethal dose of each compound, 96-well plates containing one zebrafish (7 days post-fertilization, dpf) per well in 100 μL of tank water were used. 100 μL of each compound (0.5 to 15 μM) was added to each well for 12 animals (one row) for a final volume of 200 μL. One row of larvae was used as DMSO only controls. […] All zebrafish studies were approved by the Medical University of South Carolina Institutional Animal Care and Use Committee (AR #2850) and performed in accordance with the guidelines.
Using a 96-well plate, one zebrafish larva (7 dpf) was placed in each well in 100 μL of tank water. 100 μL of each compound was then added to each well for 12 animals (one row) for a final volume of 200 μL. One row of zebrafish larvae was used as DMSO only controls. […] Toxicity was also measured in the mouse model by the NIH Anticonvulsant Screening Program at the National Institute of Neurological Disorders and Stroke (Stables and Kupferberg, 1997), according to the established NIH experimental procedures. Compounds were delivered into mice by intraperitoneal (i.p.) injection at a dose of 100 mg/kg in sterile 5% DMSO, 95% Neobee (Josey et al., 2013). Acute toxicity was assessed by monitoring the animals for impaired neuromuscular function by placing treated mice on a rod rotating at 6 rpm. […]

PTZ-induced seizures = assay: PTZ-induced seizure (swim activity) model in zebrafish larvae; format: in vivo, zebrafish (Danio rerio)
Experimental: The DanioVision locomotion tracking instrument with Ethovision XT software (Noldus) was used to measure the severity of the seizures by quantifying the locomotor activity of each fish.
In a 48-well plate, one 6-7 dpf larva was added per well. Compounds were given at a sub-lethal dose and treated for 1 h. Three control rows were included—tank water (TW) only, PTZ only and PTZ+VPA (2-4 mM final concentration of VPA). […] After 5 min, the plate was transferred to the Daniovision apparatus and the chamber light was turned on. After 2 min, Ethovision was used to determine the distance traveled (a marker of seizure of activity) by each fish for 15 min (25 frames per second). Velocity, duration of movement, and frequency of movement were also determined from the same recording. After measurement, fish were monitored visually for survival. The distance moved over the recording period with Ethovision XT software (Noldus) was averaged over 8 wells per treatment unless the fish was not detected.
In a 48-well plate, one 7 dpf zebrafish was added per well. Larvae were dosed with each compound at a sub-lethal dose 1 h prior to PTZ treatment. Three control rows were included with each experiment—tank water only control, PTZ only and PTZ+VPA (4 mM final concentration of VPA). […] After 5 min, the plate was transferred to the Daniovision instrument (Noldus Information Technology) and the chamber light was turned on. After 2 min, MediaRecorder (Noldus) was used to record video for 15 min. A small number of videos were acquired 25 frames per second, but the majority of the data was acquired at the frame rate of 60 frames per second. After recording, fish were monitored visually for survival. Ethovision XT software (Noldus) was used to track the fish movement from the video images in order to calculate the total distance traveled over 15 min. […] All experimental comparisons were made between animals from the same clutch.

c-fos = c-fos gene expression in PTZ-treated zebrafish larvae; format: in vivo, zebrafish (Danio rerio); details: 7 dpf zebrafish, pre-treatment
Experimental: Ten 7 dpf larvae were placed in 500 μL tank water in wells of a 48-well cell-culture plate and appropriate concentrations of drugs were added as in the behavior study (Table 9). After a 1 h pre-incubation period, PTZ was added to a final concentration of 15 mM in appropriate wells and larvae were incubated for a further 45 min. Fish were quickly euthanized by incubating the plate in an ice-water bath for 15 min. Fish were removed from each well and all liquid removed before freezing at −80° C. RNA was extracted using Trizol (Invitrogen) followed by the RNeasy Mini kit (Qiagen). Frozen embryos were homogenized in 800 μL Trizol using in-tube pestles and a motorized homogenizer. Following a 5-min incubation at room temperature, 200 μL chloroform was added and the samples were centrifuged at 12,000 g for 10 min. The aqueous phase was transferred to a new tube and 250 μL 100% ethanol was added and the samples mixed. This mixture was then transferred to the Qiagen minicolumn assembly and the protocol followed as described with the kit. Samples were eluted in 30 μL RNase free water and concentration was determined using the Nanodrop instrument (Thermo Fisher). cDNA was prepared using the RETROscript kit (Ambion) with 500 ng total RNA. cDNA was then diluted 1:1 with sterile dH2O and 2.5 μL of this cDNA was used in the QPCR reaction with SsoAdvanced SYBR Green Supermix (BioRad) and c-fos primers designed to span an intron-exon junction (c-fos F: […], SEQ ID NO:9; c-fos R: […], SEQ ID NO:10) ([…] each) in the BioRad CFX96 RealTime instrument. L13a and EF1a gene expression were used for normalization (Rahn et al., 2013). The following cycle conditions were used: 95° C./3 min, 40 cycles of 95° C./15 s, 62° C./30 s, followed by 95° C. 30 s and a dissociation curve. Samples were run in duplicate. The 2^−ΔΔCt method was used to quantify gene expression, whereby all gene Ct values were first normalized to Ct values of the geometric mean of the Ct of L13a and EF1a (Livak and Schmittgen, 2001). Treated samples were then normalized to the tank water control and converted to fold change.

HT-22 neuronal cells = assay: Respirometry (OCR, ECAR; Seahorse XF-96); format: cell-based, mouse; parameters: ECAR (glycolysis), difference from control: unit not given here; details: HT-22 cells, mean±SEM
Experimental: Oxygen consumption rates (OCR) and extracellular acidification rates (ECAR) of HT-22 neuronal cells were performed on the XF-96 Extracellular Flux Analyzer (Seahorse Bioscience) using standard methods (Beeson et al., 2010). In brief, cells were cultured in 96 well Seahorse plates in DMEM high glucose media (Invitrogen) supplemented with 10% FBS, 10 mM HEPES, and 1% antibiotic-antimycotic (Invitrogen). The media was replaced with DMEM media supplemented with 25 mM glucose, 10 mM sodium pyruvate, 31 mM NaCl, and 2 mM glutamine at pH 7.4. Each of the four drug ports on the Seahorse sensor cartridge were filled with test compound (media only, 5 μM NQN-1, 10 μM VK3 or 12.5 μM MB), 10 μM oligomycin, 1 μM FCCP, and 5 μM rotenone, which were injected into each well at 20, 80, 110, and 135 min, respectively. The pmol/min OCR rate for each well (9-52 wells/group) was measured. Wells were excluded from the analysis if their OCR values surpassed the Tukey Outlier Rule. In order to standardize the OCR rates across wells, the average OCR value at 17 min (last time point prior to injection of the test compounds) for each experimental group was calculated, and set to 100. All OCR values are given as a percentage of this pre-treatment value. […]

HDAC = HDAC isozymes inhibited; cited from earlier work
HT22 cells [1] = assay: t-BuOOH toxicity protection (MTS cell viability); format: cell-based, mouse; details: HT22, 50 μM t-BuOOH
Experimental: Cell viability was assessed by the ability of the viable cells to metabolize 3-(4,5-dimethylthiazol-2-yl)-5-(3-carboxymethoxyphenyl)-2(4-sulfophenyl)2-H-tetrazolium, inner salt (MTS), as described previously (Cory et al., 1991). The metabolism of tetrazolium salts is often used to measure cellular proliferation, but in the system used here, it has been previously shown to correlate well with cell viability as determined by trypan blue exclusion and colony-forming assays (Davis and Maher, 1994). Briefly, HT-22 cells were seeded onto 96-well plates at 5.0×10^3 cells per well in 75 μL of medium and maintained at 37° C. in 5% CO2 overnight prior to the initiation of experimental treatments. For glutamate toxicity testing, cells were subsequently treated with 25 μL of medium containing glutamate (monosodium glutamate, Sigma, 1 M stock concentration in media, to achieve a final concentration of 10 mM) plus inhibitors (stock in DMSO) and maintained at 37° C. in 5% CO2. For t-BuOOH toxicity testing, cells were subsequently treated with 25 μL of medium containing t-BuOOH (Sigma, 10 mM stock concentration, to achieve a final concentration of 50 μM) plus inhibitors (stock in DMSO) and maintained at 37° C. in 5% CO2 for 3 hours, after which the media was removed, cells washed gently with HBSS, the media replaced with standard culture media, and the cells returned to incubation at 37° C. in 5% CO2. For both glutamate and t-BuOOH treatments, 10 μl of MTS solution was added to each well 24 hrs after initial treatment, and the cells were maintained in growth medium for 2 h at 37° C. Absorbance at 490 nm was subsequently measured by a SpectraMax 190 plate reader (Molecular Devices). The growth medium without cells in the presence of MTS solution was used as solution background and untreated cells were considered the controls. Cell viability was calculated as a percentage compared with untreated controls. EC50 determinations were based on 12-point titrations using GraphPad Prism, and each experiment was repeated at least four times. Morphology of HT22 cells following treatments was determined by phase-contrast microscopy. Digital images of cells grown on cell culture plates were captured at 10× magnification.
In light of the findings that the protection against glutamate induced cell death provided by VK2, 2q, and 2j, are at least partially mediated by the attenuation of the increased production of endogenous ROS, the inventors also examined the effects of these compounds on tert-butylhydroperoxide (t-BuOOH) induced cell death. t-BuOOH is a short chain analog of the lipid hydroperoxides formed from peroxidation reactions during oxidative stress that is cytotoxic to cells (Lemasters and Nieminen, 1997). […] It is well documented that cells undergo rapid and extensive fragmentation in the early stages of cell death (Bossy-Wetzel et al., 2003; Frank et al., 2001; Breckenridge et al., 2008; Jagasia et al., 2005; Lee et al., 2004). Recent studies have shown that mitochondrial fragmentation is regulated by the translocation of dynamin-related protein 1 (Drp1) from the cytosol to the mitochondria, where it assembles to form spirals at division sites (Smirnova et al., 2001). Although the exact molecular mechanism is still not well studied, the activity of Drp1 is regulated by the phosphorylation and dephosphorylation of specific serine residues by protein kinases and phosphatases such as calcineurin and the PGAM5 (Wang et al., 2012; Chang et al., 2007). […]

HT22 cells [2] = assay: Glutathione determination in glutamate-treated cells; format: cell-based, mouse; details: HT22, 10 mM glutamate 8 hrs, 25 μM
Experimental: The content of total glutathione (reduced and oxidized) in the supernatant of cell homogenate was measured using the glutathione assay kit (Cayman Chemical) in microtiter plate assay, which utilizes an enzymatic recycling method, using glutathione reductase, for the quantification of glutathione. The sulfhydryl group of glutathione reacted with 5,5′-dithiobis-2-nitrobenzoic acid (DTNB) and produced a yellow-colored 5-thio-2-nitrobenzoic acid (TNB), which was measured at 405 nm.

[3] = Antioxidant activity assay (DPPH free radical scavenging); details: 20 μM, 100 μM DPPH in methanol
Experimental: Antioxidant activity of various reagents was assayed as previously described by monitoring the disappearance of the optical absorbance of the stable-free radical DPPH on reaction with test compounds (Blois, 1958). The rate of the reaction represents the antioxidant potency of test agents. The known free radical scavenger Trolox and ascorbic acid were used as positive controls. Briefly, 10 μL of test reagents at final concentrations of 20 μM were added to 200 μL of 100 μM DPPH in methanol. Optical absorbance of DPPH at 517 nm was immediately monitored for 10 min.

SMILES	Lethal dose (zebrafish larvae; up to 5 h treatment)	Highest concentration tested for anti-seizure activity (zebrafish larvae; highest sub-lethal dose)	concentration required for effective reduction of seizures (PTZ-induced seizures; PTZ-treated zebrafish larvae)	Seizure suppression (PTZ-induced seizures; PTZ-treated zebrafish larvae, pretreated 1 hr at NOEC)	PTZ-induced swim activity (distance traveled) (PTZ-induced seizures; zebrafish larvae, 1 h pretreatment at sub-lethal concentration (VPA 4 mM, NQN-1 3 μM), 15 mM PTZ)	PTZ-induced increase in c-fos expression (c-fos)	basal cellular respiration, difference in OCR from control (HT-22 neuronal cells; 1 h treatment, OCR as percentage of pre-treatment value)	basal mitochondrial respiration, difference from control (HT-22 neuronal cells; basal minus non-mitochondrial (rotenone))	ATP-linked respiration, difference from control (HT-22 neuronal cells; basal minus oligomycin)	ECAR (glycolysis), difference from control (HT-22 neuronal cells)	HDAC Class of Inhibition (HDAC)	protection from t-BuOOH induced cell death (HT22 cells [1])	depletion of total cellular GSH (HT22 cells [2])	free radical scavenging capacity (DPPH absorbance) [3]
O=C(NC1=CC(=O)c2ccccc2C1=O)c1ccccc1 [2-benzoylamino-1,4-naphthoquinone]	0.005 mM	0.003 mM	3 µM	Yes	significantly suppressed PTZ-induced swim activity	able to blunt this increase in expression	24.35±1.03	15.26±2.29	16.83±1.83	1.75±1.12	6			
Cc1c(C)c2c(c(C)c1O)CCC(C)(C(=O)O)O2 (stereo not drawn) [Trolox]												less effective	did not prevent GSH depletion	rapidly scavenged DPPH
COC1=C(OC)C(=O)C(C/C=C(\C)CC/C=C(\C)CC/C=C(\C)CC/C=C(\C)CC/C=C(\C)CC/C=C(\C)CC/C=C(\C)CC/C=C(\C)CC/C=C(\C)CCC=C(C)C)=C(C)C1=O [co-enzyme Q10]												less effective		
